Experimental data from patent publication US20240060139A1, “TREATMENT RESPONSE SIGNATURES” (Caris MPI, Inc., priority 2020, published 2024).

Tested on: ovarian cancers
Test: Kaplan Meier overall survival on platinum therapy against gene copy number at 5q1x and 3q2x (control analysis)
Format: in vivo
Details: MAP3K1, IL6ST, PIK3R1 copy number; FIGS. 3F-H
Excerpt: We then asked whether loss of the PARP15 and PARP8 would also correlate with response or lack of response to PARPi therapy. For this analysis we looked at DNA copy number determined using next-generation sequencing of a panel of 592 genes. See Example 1. […] Without being bound by theory, loss at a one gene is highly correlated with loss of neighboring genes. As a control, we repeated the analysis shown in FIGS. 3C-E but used response to platinum compounds instead of PARPi, specifically carboplatin. […] As a control, we repeated the analysis shown in FIGS. 3I-K but used response to platinum compounds instead of PARPi.

N.N.O=C([O-])C1(C(=O)[O-])CCC1.[Pt+2] [carboplatin]
response to platinum therapy (overall survival) by gene copy number at 5q1x: loss of copy number at 5q1x was correlated of positive benefit of platinum therapy
